Test results published in US7378375B1, “Substituted pyridine herbicides” (Syngenta Crop Protection, Inc., priority 2000, dated 2008).

Tests used:
[1] = tested on: Monocotyledonous and dicotyledonous test plants; assay: Post-emergence herbicidal action, greenhouse pot test, sprayed at the 2- to 3-leaf stage, 9-level rating after 2 to 3 weeks; assay type: in vivo; parameters: key: 9-level scale: 1 = complete damage, 9 = no effect; conditions: 250 g/ha, rated after 2 to 3 weeks, 9-level scale
Procedure: Post-Emergence Herbicidal Action
Monocotyledonous and dicotyledonous test plants are grown in standard soil in pots. At the 2- to 3-leaf stage of the test plants, the test substances are sprayed at optimum dosage (500 l of water/ha) as an aqueous suspension (prepared from a wettable powder (example F3, b) according to WO 97/34485) or emulsion (prepared from an emulsion concentrate (example F1, c) according to WO 97/34485). The test plants are then grown further under optimum conditions in a greenhouse.
After a test period of 2 to 3 weeks, the test is evaluated using a 9-level scale of rating (1=complete damage, 9=no effect). Ratings of 1 to 4 (in particular 1 to 3) mean good to very good herbicidal action.

[2] = tested on: Monocotyledonous and dicotyledonous test plants; assay: Herbicidal action before emergence of the plants (pre-emergence action), greenhouse pot test, 9-level rating after 4 weeks; assay type: in vivo; parameters: key: 9-level scale: 1 = complete damage, 9 = no effect; conditions: 250 g/ha, rated after 4 weeks, 9-level scale
Procedure: Herbicidal Action Before Emergence of the Plants (Pre-Emergence Action)
Monocotyledonous and dicotyledonous test plants are sown in standard soil in pots. Immediately after sowing, the test substances are sprayed on at an optimum dosage (500 l of water/ha) as an aqueous suspension (prepared from a wettable powder (example F3, b) according to WO 97/34485) or emulsion (prepared from an emulsion concentrate (example F1, c) according to WO 97/34485). The test plants are then grown under optimum conditions in a greenhouse.
After a test period of 4 weeks, the test is evaluated using a 9-level scale of ratings (1=complete damage, 9=no effect). Ratings of 1 to 4 (in particular 1 to 3) mean good to very good herbicidal action.

| SMILES | Post-emergence action rating, Abutilon [1] | Post-emergence action rating, Amaranth [1] | Post-emergence action rating, Chenop. [1] | Post-emergence action rating, Digitaria [1] | Post-emergence action rating, Echino. [1] | Post-emergence action rating, Ipopur. [1] | Post-emergence action rating, Panicum [1] | Post-emergence action rating, Xanth. [1] | Pre-emergence action rating, Abutilon [2] | Pre-emergence action rating, Amaranthus [2] | Pre-emergence action rating, Chenop. [2] | Pre-emergence action rating, Digitaria [2] | Pre-emergence action rating, Echino. [2] | Pre-emergence action rating, Panicum [2] |
| --- | --- | --- | --- | --- | --- | --- | --- | --- | --- | --- | --- | --- | --- | --- |
| COCCCOCc1nc(C(F)(F)F)ccc1C(=O)C1=C(O)C2CCC(C2)C1=O (stereo not shown) [A846-B52] | 2 | 2 | 2 | 2 | 2 | 1 | 1 | 2 | 2 | 1 | 1 | 1 | 1 | 1 |
| N#CCCOCc1nc(C(F)(F)F)ccc1C(=O)C1=C(O)C2CCC(C2)C1=O (stereo not shown) [A849-B52] | 2 | 2 | 2 | 2 | 3 | 2 | 2 | 2 | 2 | 1 | 1 | 2 | 2 | 1 |
| COCCOCc1nc(C(F)(F)F)ccc1C(=O)C1=C(O)C2CCC(C2)C1=O (stereo not shown) [A10-B52, (H3), 4-Hydroxy-3-[2-(2-methoxyethoxymethyl)-6-trifluoromethylpyridine-3-carbonyl]-bicyclo[3.2.1]oct-3-en-2-one] | 1 | 2 | 1 | 1 | 2 | 2 | 1 | 2 | 1 | 1 | 1 | 1 | 1 | 1 |
| COCCOCc1nc(C(F)(F)F)ccc1C(=O)C1=C(O)CCCC1=O [A10-B1] | 2 | 2 | 1 | 2 | 2 | 2 | 2 | 2 | 1 | 1 | 1 | 2 | 2 | 2 |
| O=C(C1=C(O)C2CCC(C2)C1=O)c1ccc(C(F)(F)F)nc1COCCCO (stereo not shown) [A847-B52] | 2 | 3 | 1 | 2 | 1 | 4 | 1 | 2 | 4 | 1 | 4 | 3 | 2 | 1 |
| CCC(OC)OCCOCc1nc(C(F)(F)F)ccc1C(=O)C1=C(O)C2CCC(C2)C1=O (stereo not shown) [A838-B52] | 1 | 2 | 1 | 2 | 3 | 2 | 2 | 2 | 1 | 1 | 1 | 3 | 2 | 1 |
| O=C(C1=C(O)C2CCC(C2)C1=O)c1ccc(C(F)(F)F)nc1COC1CCCCO1 (stereo not shown) [A28-B52] | 2 | 1 | 1 | 2 | 2 | 4 | 1 | 3 | 2 | 3 |  | 2 | 2 | 1 |
| O=C(C1=C(O)C2CCC(C2)C1=O)c1ccc(C(F)(F)F)nc1COCC(F)(F)F (stereo not shown) [A834-B52] | 2 | 1 | 1 | 1 | 2 | 2 | 1 | 2 | 1 | 2 | 1 | 1 | 1 | 1 |
| CCN(CC)CC.O=C(C1=C(O)C2CCC(C2)C1=O)c1ccc(C(F)(F)F)nc1COC1CCCO1 (stereo not shown) [A837-B52 (Et3NH+)] | 2 | 2 | 1 | 2 | 2 | 2 | 2 | 2 | 1 | 1 | 1 | 1 | 2 | 1 |
| O=C(C1=C(O)C2CCC(C2)C1=O)c1ccc(C(F)(F)F)nc1COCC1CO1 (stereo not shown) [A57-B52 (H5), 4-Hydroxy-3-(2-oxiranylmethoxymethyl-6-trifluoromethylpyridine-3-carbonyl)-bicyclo[3.2.1]oct-3-en-2-one] | 1 | 1 | 1 | 1 | 2 | 2 | 1 | 2 | 1 | 1 | 1 | 1 | 1 | 1 |
